These results are taken from patent US9783510B2, “Small molecule mediated transcriptional induction of E-cadherin” (Vanderbilt University, priority 2014, dated 2017).

The subject of the first assay is E-cadherin expression in SW620 cells. Description: E-cadherin expression, in-cell Western (ICW), SW620 cells. Format: cell-based. Conditions: Homo sapiens, SW-620, 24 h, change in expression level of E-cadherin in response to 10 μM compound, 24 hours, SW620 cells. The method, then:
SW620 and H520 cells (5×10^4/100 μL) were seeded in a 96-well plate prior to treatment. Cells were treated with 10 μM concentration of synthesized compound in quadruplicate for 24 hours in RPMI 1640 supplemented medium and 100 μg/mL penicillin-streptomycin. The cells were then fixed with 100% methanol for 20 minutes at 4° C. The wells were then washed 2 times with PBS, permeabilized in 2% bovine serum albumin (BSA) and 0.2% TritonX-100 in PBS for 30 minutes at room temperature with gentle agitation, and blocked in LI-COR blocking buffer for 30 minutes at room temperature with gentle agitation. The cells were then incubated with the following primary antibodies: anti-E-Cadherin (1:500) and anti-α-Tubulin (1:1000) diluted in blocking buffer (1:1 dilution in PBS) for 2 hours at room temperature with gentle agitation. The cells were washed 4 times in PBS-T for 5 minutes each, and then incubated with the following secondary antibodies conjugated to a fluorescent entity: IRDye 800-conjugated goat anti-rabbit IgG (1:1000) and IRDye-700-conjugated goat anti-mouse IgG (1:2000) in blocking buffer (1:1 dilution in PBS) with gentle agitation for 1 h at room temperature. The cells were washed 4 times in PBS-T for 5 minutes each followed by a single wash with PBS. All liquid was removed from the wells and the plates were visualized and analyzed on the Odyssey IR imaging system (LI-COR Biosciences).
The assay was further optimized in the following manner. The cells were washed 2 times with PBS, fixed in 100% methanol at room temperature for 15 minutes, and again washed 2 times with PBS. The cells were then incubated with the following primary antibodies: anti-E-Cadherin (1:200) and anti-α-Tubulin (1:2000) diluted in ice cold 2% bovine serum albumin (BSA) and 0.2% TritonX-100 in PBS for 1 hour at room temperature with gentle agitation. The cells were washed 2 times in PBS and then incubated with the following secondary antibodies conjugated to a fluorescent entity: Licor 800-conjugated goat anti-rabbit IgG (1:2000) and IRDye-700-conjugated goat anti-mouse IgG (1:2000) in ice cold 2% BSA and 0.2% TritonX-100 in PBS with gentle agitation for 45 minutes at room temperature. The wells were washed 2 times in PBS, dried, and analyzed as previously mentioned.
N-Acetamidoalkyl-5-arylisoxazole-3-carboxamide analogs were synthesized as described above. Changes in expression level of E-cadherin in response to 10 μM compound in SW620 cells was determined in a cell-based functional assay as described above, and the data are shown in Table III. The compound number corresponds to the compound numbers used in Table II.
EC50 of inducement of E-cadherin expression in SW620 cells was determined in a cell-based functional assay as described above, and the data are shown in Table V. The compound number corresponds to the compound numbers used in Table IV.
On to `O=C(CCCC[C@@H]1SC[C@@H]2NC(=O)N[C@@H]21)NCCCNC(=O)c1cc(-c2ccccc2)on1` (stereo in doubt) [Compound 19, N-(3-(5-((3aS,4S,6aR)-2-oxohexahydro-1H-thieno[3,4-d]imidazol-4-yl)pentanamido)propyl)-5-phenylisoxazole-3-carboxamide], for which the fold induction (usually the signal under treatment as a multiple of the control signal) at 10 µM was 1.25.
For the compound `O=C(NCCNC(=O)c1cc(-c2ccccc2)on1)c1cccnc1` [Compound 3, N-(2-(nicotinamido)ethyl)-5-phenylisoxazole-3-carboxamide], the fold induction at 10 µM was 3.05.
`N[C@@H](Cc1c[nH]c2ccccc12)C(=O)NCCNC(=O)c1cc(-c2ccccc2)on1` [Compound 6, (S)—N-(2-(2-amino-3-(1H-indol-3-yl)propanamido)ethyl)-5-phenylisoxazole-3-carboxamide]: the fold induction at 10 µM came to 0.92.
On to `O=C(Cc1cccc(O)c1)NCCNC(=O)c1cc(-c2ccccc2)on1` [Compound 7, N-(2-(2-(3-hydroxyphenyl)acetamido)ethyl)-5-phenylisoxazole-3-carboxamide], for which the fold induction at 10 µM was determined as 2.92.
Consider `O=C(NCCNC(=O)c1cc(-c2ccccc2)on1)c1cccc(O)c1` [Compound 8, N-(2-(3-hydroxybenzamido)ethyl)-5-phenylisoxazole-3-carboxamide], for which the fold induction at 10 µM turned out to be 2.44.
Take `O=C(NCCNC(=O)c1cc(-c2ccccc2)on1)c1ccc(O)c(O)c1` [Compound 9, N-(2-(3,4-dihydroxybenzamido)ethyl)-5-phenylisoxazole-3-carboxamide]: the fold induction at 10 µM was 1.89.
Still for that read-out and setting: the same measure for `O=C(NCCNC(=O)c1cc(-c2ccccc2)on1)c1cc(O)cc(Br)c1` [Compound 10, N-(2-(3-bromo-5-hydroxybenzamido)ethyl)-5-phenylisoxazole-3-carboxamide]: 2.35; for `Cc1scnc1C(=O)NCCNC(=O)c1cc(-c2ccccc2)on1` [Compound 11, N-(2-(5-methylthiazole-4-carboxamido)ethyl)-5-phenylisoxazole-3-carboxamide]: 2.08.
For the compound `O=C(NCCNC(=O)c1cnccc1O)c1cc(-c2ccccc2)on1` [Compound 12, N-(2-(4-hydroxynicotinamido)ethyl)-5-phenylisoxazole-3-carboxamide], the fold induction at 10 µM was determined as 3.25.
Same read-out and setting: the same measure for `Nc1cccc(C(=O)NCCCNC(=O)c2cc(-c3ccccc3)on2)c1` [Compound 15, N-(3-(3-aminobenzamido)propyl)-5-phenylisoxazole-3-carboxamide]: 3.94; for `Nc1ccc(C(=O)NCCCNC(=O)c2cc(-c3ccccc3)on2)cc1O` [Compound 16, N-(3-(4-amino-3-hydroxybenzamido)propyl)-5-phenylisoxazole-3-carboxamide]: 3.72; for `O=C(CCCC[C@@H]1SC[C@@H]2NC(=O)N[C@@H]21)Nc1ccc(C(=O)NCCCNC(=O)c2cc(-c3ccccc3)on2)cc1` [Compound 17, N-(3-(4-(5-((3aS,4S,6aR)-2-oxohexahydro-1H-thieno[3,4-d]imidazol-4-yl)pentanamido)benzamido)propyl)-5-phenylisoxazole-3-carboxamide]: 1.04.
In the case of `O=C(CCCC[C@@H]1SC[C@@H]2NC(=O)N[C@@H]21)Nc1cccc(C(=O)NCCCNC(=O)c2cc(-c3ccccc3)on2)c1` [Compound 18, N-(3-(3-(5-((3aS,4S,6aR)-2-oxohexahydro-1H-thieno[3,4-d]imidazol-4-yl)pentanamido)benzamido)propyl)-5-phenylisoxazole-3-carboxamide], the fold induction at 10 µM is 1.05.
For `N[C@@H](Cc1ccccc1)C(=O)NCCNC(=O)c1cc(-c2ccccc2)on1` [Compound 23, (S)—N-(2-(2-amino-3-phenylpropanamido)ethyl)-5-phenylisoxazole-3-carboxamide], the fold induction at 10 µM was determined as 0.84.
For the compound `Cn1ccc(C(=O)NCCCNC(=O)c2cc(-c3ccccc3)on2)n1` [Compound 28, N-(3-(1-methyl-1H-pyrazole-3-carboxamido)propyl)-5-phenylisoxazole-3-carboxamide], the fold induction at 10 µM was determined as 3.42.
For the compound `O=C(NCCCNC(=O)c1cc(-c2ccccc2)on1)c1cocn1` [Compound 29, N-(3-(oxazole-4-carboxamido)propyl)-5-phenylisoxazole-3-carboxamide], the fold induction at 10 µM came to 3.35.
For `O=C(NCCCNC(=O)c1cnccc1O)c1cc(-c2ccccc2)on1` [Compound 30, N-(3-(4-hydroxynicotinamido)propyl)-5-phenylisoxazole-3-carboxamide], the fold induction at 10 µM was found to be 2.69.
On to `O=C(NCCCNC(=O)c1cc(-c2ccccc2)on1)c1ccncc1` [Compound 31, N-(3-(isonicotinamido)propyl)-5-phenylisoxazole-3-carboxamide], for which the fold induction at 10 µM turned out to be 3.51.
With `N[C@@H](Cc1c[nH]c2ccccc12)C(=O)NCCCNC(=O)c1cc(-c2ccccc2)on1` [Compound 32, (S)—N-(3-(2-amino-3-(1H-indol-3-yl)propanamido)propyl)-5-phenylisoxazole-3-carboxamide], the fold induction at 10 µM is 2.7.
Take `O=C(NCCCNC(=O)c1cc(-c2ccccc2)on1)c1cscn1` [Compound 33, 5-phenyl-N-(3-(thiazole-4-carboxamido)propyl)isoxazole-3-carboxamide]: the fold induction at 10 µM worked out at 3.7.
For the compound `O=C(NCCCNC(=O)c1ncco1)c1cc(-c2ccccc2)on1` [Compound 34, N-(3-(oxazole-2-carboxamido)propyl)-5-phenylisoxazole-3-carboxamide], the fold induction at 10 µM was 2.77.
`O=C(NCCCNC(=O)c1nccs1)c1cc(-c2ccccc2)on1` [Compound 35, 5-phenyl-N-(3-(thiazole-2-carboxamido)propyl)isoxazole-3-carboxamide]: the fold induction at 10 µM was 2.61.
In the case of `O=C(NCCCNC(=O)c1cc(-c2ccccc2)on1)c1ccc(O)c(O)c1` [Compound 36, N-(3-(3,4-dihydroxybenzamido)propyl)-5-phenylisoxazole-3-carboxamide], the fold induction at 10 µM amounted to 2.69.
On the same count and under the same terms, the same measure for `O=C(NCCCNC(=O)c1cc(-c2cccs2)on1)c1ccnc(O)c1` [Compound 37, N-(3-(2-hydroxyisonicotinamido)propyl)-5-(thiophen-2-yl)isoxazole-3-carboxamide]: 1.83; for `Cc1ccc(C(=O)NCCCNC(=O)c2cc(-c3ccccc3)on2)o1` [Compound 38, N-(3-(5-methylfuran-2-carboxamido)propyl)-5-phenylisoxazole-3-carboxamide]: 3.37; for `O=C(NCCCNC(=O)c1cc(-c2cccs2)on1)c1cccnc1` [Compound 39, N-(3-(nicotinamido)propyl)-5-(thiophen-2-yl)isoxazole-3-carboxamide]: 4.56.
Regarding `O=C(NCCCNC(=O)c1cc(-c2cccs2)on1)c1cc(Cl)ccn1` [Compound 40, N-(3-(4-chloropicolinamido)propyl)-5-(thiophen-2-yl)isoxazole-3-carboxamide], the fold induction at 10 µM stood at 1.95.

Staying with this assay, now noted: Homo sapiens, SW-620; inducement of E-cadherin expression in SW620 cells.
Consider `O=C(NCCNC(=O)c1cc(-c2ccccc2)on1)c1cccnc1` [Compound 3, N-(2-(nicotinamido)ethyl)-5-phenylisoxazole-3-carboxamide], for which a half-maximal effect (EC50) was put at 7.1 µM.
On the same count and under the same terms, the same measure for `O=C(NCCCNC(=O)c1cc(-c2cccs2)on1)c1cccnc1` [Compound 39, N-(3-(nicotinamido)propyl)-5-(thiophen-2-yl)isoxazole-3-carboxamide]: 5.02 µM.

The same assay, now with this note: change in expression level of E-cadherin in response to 10 μM compound, 24 hours, SW620 cells.
Regarding `Nc1ccc(C(=O)NCCCNC(=O)c2cc(-c3ccccc3)on2)cn1` [Compound 14, N-(3-(6-aminonicotinamido)propyl)-5-phenylisoxazole-3-carboxamide], the “fold change SW620 ICW” value was 0.70 fold.
